Measurements published in patent publication US10765114B2, “4-amino-6-(pyridyl and 2-substitutedphenyl)-picolinates and 6-amino-2-(pyridyl and 2-substitutedphenyl)-pyrimidine-4-carboxylates and their use as herbicides” (Dow AgroSciences LLC, priority 2013, dated 2020).

Tests used:
Test in all cases: Post-Emergent Test III (Wheat and Barley)
[1] = system: TRZSS; assay type: in vivo; conditions: for pest or weed control at 35 g/ha: 35 g ai/ha; for pest or weed control at 70 g/ha: 70 g ai/ha; for GR20, TRZSS: effective dose for growth reduction of 20 percent, probit analysis
Experimental: (§1) Seeds of the desired test plant species were planted in Sun Gro MetroMix® 306 planting mixture, which typically has a pH of 6.0 to 6.8 and an organic matter content of about 30 percent, in plastic pots with a surface area of 103.2 square centimeters (cm^2). When required to ensure good germination and healthy plants, a fungicide treatment and/or other chemical or physical treatment was applied. The plants were grown for 7-36 days in a greenhouse with an approximate 14 h photoperiod which was maintained at about 18° C. during the day and 17° C. during the night. Nutrients and water were added on a regular basis and supplemental lighting was provided with overhead metal halide 1000-Watt lamps as necessary. The plants were employed for testing when they reached the second or third true leaf stage.
(§2) A weighed amount, determined by the highest rate to be tested, of each test compound was placed in a 25 mL glass vial and was dissolved in 4 mL of a 97:3 v/v mixture of acetone and DMSO to obtain concentrated stock solutions. […] The concentrated stock solutions obtained were diluted with 20 mL of an aqueous mixture containing acetone, water, isopropyl alcohol, DMSO, Agri-Dex crop oil concentrate, and X-77 surfactant in a 48:39:10:1.5:1.5:0.02 v/v ratio to obtain spray solutions containing the highest application rates. Additional application rates were obtained by serial dilution of 12 mL of the high rate solution into a solution containing 2 mL of 97:3 v/v mixture of acetone and DMSO and 10 mL of an aqueous mixture containing acetone, water, isopropyl alcohol, DMSO, Agri-Dex crop oil concentrate, and X-77 surfactant in a 48:39:10:1.5:1.5:0.02 v/v ratio to obtain ½×, ¼×, ⅛× and 1/16× rates of the high rate. Compound requirements are based upon a 12 mL application volume at a rate of 187 liters per hectare (L/ha). Formulated compounds were applied to the plant material with an overhead Mandel track sprayer equipped with 8002E nozzles calibrated to deliver 187 L/ha over an application area of 0.503 square meters at a spray height of 18 inches (43 cm) above the average plant canopy height. Control plants were sprayed in the same manner with the solvent blank.
(§3) The treated plants and control plants were placed in a greenhouse as described above and watered by subirrigation to prevent wash-off of the test compounds. After 21 dAYS, the condition of the test plants as compared with that of the untreated plants was determined visually and scored on a scale of 0 to 100 percent where 0 corresponds to no injury and 100 corresponds to complete kill and presented as indicated in Table A.
(§4) By applying the well-accepted probit analysis as described by J. Berkson in Journal of the American Statistical Society, 48, 565 (1953) and by D. Finney in “Probit Analysis” Cambridge University Press (1952), herbicidal injury of a specific compound at various rates can be used to calculate GR10, GR20, GR50, GR80 and GR90 values, which are defined as growth reduction factors that correspond to the effective dose of herbicide required to provide plant growth reduction (GR) of 10 percent, 20 percent, 50 percent, 80 percent and 90 percent, respectively. Probit analysis was applied to data collected from multiple dose rates of individual compounds utilizing the procedures explained in the following examples. The analysis of those dose rates is captured in the following tables.

[2] = system: HORSS; assay type: in vivo; conditions: for pest or weed control at 35 g/ha: 35 g ai/ha; for pest or weed control at 70 g/ha: 70 g ai/ha; for GR20, HORSS: effective dose for growth reduction of 20 percent, probit analysis
Experimental: as §1, §2, §3, §4

[3] = system: ALOMY (blackgrass); assay type: in vivo, Alopecurus myosuroides; conditions: for pest or weed control at 35 g/ha: 35 g ai/ha; for pest or weed control at 70 g/ha: 70 g ai/ha; for GR50, ALOMY: effective dose for growth reduction of 50 percent; for GR50, ALOMY / GR80, ALOMY: probit analysis; for GR80, ALOMY: effective dose for growth reduction of 80 percent
Experimental: as §1, §2, §3, §4

[4] = system: KCHSC (kochia); assay type: in vivo, Kochia scoparia; conditions: for pest or weed control at 35 g/ha: 35 g ai/ha; for pest or weed control at 70 g/ha: 70 g ai/ha; for GR50, KCHSC: effective dose for growth reduction of 50 percent; for GR50, KCHSC / GR80, KCHSC: probit analysis; for GR80, KCHSC: effective dose for growth reduction of 80 percent
Experimental: as §1, §2, §3, §4

[5] = system: APESV (windgrass); assay type: in vivo, Apera spica-venti; conditions: for pest or weed control at 35 g/ha: 35 g ai/ha; for pest or weed control at 70 g/ha: 70 g ai/ha; for GR50, APESV: effective dose for growth reduction of 50 percent; for GR50, APESV / GR80, APESV: probit analysis; for GR80, APESV: effective dose for growth reduction of 80 percent
Experimental: as §1, §2, §3, §4

[6] = system: SETVI (green foxtail); assay type: in vivo, Setaria viridis; conditions: for pest or weed control at 35 g/ha: 35 g ai/ha; for pest or weed control at 70 g/ha: 70 g ai/ha; for GR50, SETVI: effective dose for growth reduction of 50 percent; for GR50, SETVI / GR80, SETVI: probit analysis; for GR80, SETVI: effective dose for growth reduction of 80 percent
Experimental: as §1, §2, §3, §4

[7] = Triticum aestivum, post-emergence, 504 h, postemergence, read-out: Visual Growth Reduction (%) 21 Days After Application, TRZSS
[8] = Hordeum vulgare, post-emergence, 504 h, postemergence, read-out: Visual Growth Reduction (%) 21 Days After Application, HORSS
[9] = Alopecurus myosuroides, post-emergence, 504 h, postemergence, read-out: Visual Growth Reduction (%) 21 Days After Application, ALOMY
[10] = Bassia scoparia, post-emergence, 504 h, postemergence, read-out: Visual Growth Reduction (%) 21 Days After Application, KCHSC
[11] = Apera spica-venti, post-emergence, 504 h, postemergence, read-out: Visual Growth Reduction (%) 21 Days After Application, APESV
[12] = Setaria viridis, post-emergence, 504 h, postemergence, read-out: Visual Growth Reduction (%) 21 Days After Application, SETVI

Compound: Cc1c(-c2ccc(C(F)(F)F)nc2)nc(C(=O)O)c(Cl)c1N [Compound 51, 4-amino-5-chloro-3-methyl-6′-(trifluoromethyl)-[2,3′-bipyridine]-6-carboxylic acid]
- pest or weed control at 35 g/ha [1, 7]: 60 to 74%
- pest or weed control at 70 g/ha [1, 7]: 75 to 84%
- GR20, TRZSS [1]: 1 g ai/ha
- pest or weed control at 35 g/ha [2, 8]: 60 to 74%
- pest or weed control at 70 g/ha [2, 8]: 75 to 84%
- GR20, HORSS [2]: 1 g ai/ha
- pest or weed control at 35 g/ha [3, 9]: 0 to 29%
- pest or weed control at 70 g/ha [3, 9]: 0 to 29%
- GR50, ALOMY [3]: >140 g ai/ha
- GR80, ALOMY [3]: >140 g ai/ha
- pest or weed control at 35 g/ha [4, 10]: 0 to 29%
- pest or weed control at 70 g/ha [4, 10]: 0 to 29%
- pest or weed control at 35 g/ha [5, 11]: 0 to 29%
- pest or weed control at 70 g/ha [5, 11]: 60 to 74%
- GR50, APESV [5]: 63 g ai/ha
- GR80, APESV [5]: 139 g ai/ha
- pest or weed control at 35 g/ha [6, 12]: 75 to 84%
- pest or weed control at 70 g/ha [6, 12]: 85 to 94%
- GR50, SETVI [6]: 26 g ai/ha
- GR80, SETVI [6]: 47 g ai/ha

Compound: COC(=O)c1nc(-c2ccc(C(F)(F)F)nc2)c(F)c(N)c1Cl [Compound 59, methyl 4-amino-5-chloro-3-fluoro-6′-(trifluoromethyl)-[2,3′-bipyridine]-6-carboxylate]
- pest or weed control at 35 g/ha [1, 7]: 60 to 74%
- pest or weed control at 70 g/ha [1, 7]: 75 to 84%
- GR20, TRZSS [1]: 4 g ai/ha
- pest or weed control at 35 g/ha [2, 8]: 75 to 84%
- pest or weed control at 70 g/ha [2, 8]: 75 to 84%
- GR20, HORSS [2]: 4 g ai/ha
- pest or weed control at 35 g/ha [3, 9]: 30 to 44%
- pest or weed control at 70 g/ha [3, 9]: 60 to 74%
- GR50, ALOMY [3]: 48 g ai/ha
- GR80, ALOMY [3]: 80 g ai/ha
- pest or weed control at 35 g/ha [4, 10]: 60 to 74%
- pest or weed control at 70 g/ha [4, 10]: 75 to 84%
- GR50, KCHSC [4]: 27 g ai/ha
- GR80, KCHSC [4]: 57 g ai/ha
- pest or weed control at 35 g/ha [5, 11]: 30 to 44%
- pest or weed control at 70 g/ha [5, 11]: 75 to 84%
- GR50, APESV [5]: 42 g ai/ha
- GR80, APESV [5]: 72 g ai/ha
- pest or weed control at 35 g/ha [6, 12]: 45 to 59%
- pest or weed control at 70 g/ha [6, 12]: 85 to 94%
- GR50, SETVI [6]: 34 g ai/ha
- GR80, SETVI [6]: 61 g ai/ha

Compound: Nc1c(F)c(-c2ccc(OC(F)F)nc2)nc(C(=O)O)c1Cl [Compound 66]
- pest or weed control at 35 g/ha [1, 7]: 75 to 84%
- pest or weed control at 70 g/ha [1, 7]: 85 to 94%
- pest or weed control at 140 g/ha ([1]; Triticum aestivum, post-emergence, 504 h, 140 g ai/ha, postemergence, read-out: Visual Growth Reduction (%) 21 Days After Application, TRZSS): 95 to 100%
- GR20, TRZSS [1]: 8 g ai/ha
- pest or weed control at 35 g/ha [2, 8]: 60 to 74%
- pest or weed control at 70 g/ha [2, 8]: 60 to 74%
- pest or weed control at 140 g/ha ([2]; Hordeum vulgare, post-emergence, 504 h, 140 g ai/ha, postemergence, read-out: Visual Growth Reduction (%) 21 Days After Application, HORSS): 85 to 94%
- GR20, HORSS [2]: 15 g ai/ha
- pest or weed control at 35 g/ha [3, 9]: 0 to 29%
- pest or weed control at 70 g/ha [3, 9]: 0 to 29%
- pest or weed control at 140 g/ha ([3]; Alopecurus myosuroides, post-emergence, 504 h, 140 g ai/ha, postemergence, read-out: Visual Growth Reduction (%) 21 Days After Application, ALOMY): 45 to 59%
- GR50, ALOMY [3]: 140 g ai/ha
- GR80, ALOMY [3]: >140 g ai/ha
- pest or weed control at 35 g/ha [4, 10]: 0 to 29%
- pest or weed control at 70 g/ha [4, 10]: 45 to 59%
- pest or weed control at 140 g/ha ([4]; Bassia scoparia, post-emergence, 504 h, 140 g ai/ha, postemergence, read-out: Visual Growth Reduction (%) 21 Days After Application, KCHSC): 60 to 74%
- GR50, KCHSC [4]: 80 g ai/ha
- GR80, KCHSC [4]: >140 g ai/ha
- pest or weed control at 35 g/ha [5, 11]: 0 to 29%
- pest or weed control at 70 g/ha [5, 11]: 0 to 29%
- pest or weed control at 140 g/ha ([5]; Apera spica-venti, post-emergence, 504 h, 140 g ai/ha, postemergence, read-out: Visual Growth Reduction (%) 21 Days After Application, APESV): 60 to 74%
- GR50, APESV [5]: 130 g ai/ha
- GR80, APESV [5]: >140 g ai/ha
- pest or weed control at 35 g/ha [6, 12]: 30 to 44%
- pest or weed control at 70 g/ha [6, 12]: 60 to 74%
- pest or weed control at 140 g/ha ([6]; Setaria viridis, post-emergence, 504 h, 140 g ai/ha, postemergence, read-out: Visual Growth Reduction (%) 21 Days After Application, SETVI): 75 to 84%
- GR50, SETVI [6]: 49 g ai/ha
- GR80, SETVI [6]: 112 g ai/ha
